Reference: a melting point compilation (Tetko et al.; mined from patent text by program, amines drawn as free bases though some values may be those of a salt)

melting point | Structure (SMILES)
149 to 151 °C | CC1(C)CCC(C)(C)c2nc3c(nc21)CCc1c(-c2ccc(C(=O)O)cc2)cn(Cc2cccnc2)c1-3
200 to 202 °C | COC(=O)c1ccccc1S(=O)(=O)NC(=O)c1ccc2c(C)cc(C)nn12
71.5 to 72 °C | C#Cc1ccc(C(=O)OC(C)(C)C)cc1
182 to 184 °C | COc1ccc2c(c1)CCC1CCNC(=O)C(CSC)=C21 (stereo not drawn)
120 °C | CCn1cc(C(=O)O)c(=O)c2cc(F)c(N3CCNC(c4ccn(S(=O)(=O)c5ccccc5)c4)C3)cc21 (stereo not drawn)
169 °C | O=C(Cc1ccccc1)Nc1cnc(-c2ccccc2)nc1Cl
188 °C | Cc1cc(OC(F)(F)C(F)C(F)(F)F)ccc1NC(=O)c1cccc(I)c1 (stereo not drawn)
145 to 150 °C | CC(C)c1n[nH]c(Cl)c1C=NC(C#N)=C(N)C#N
74 to 77 °C | CN(CCCS(=O)CCCC(F)(F)C(F)(F)F)CCOc1ccc(C2=C(c3ccccc3)CCCc3ccccc32)cc1 (stereo not drawn)
151 °C | Cc1nc(S(=O)(=O)Cc2ccc(Cl)cc2)nc2c1CCCC2
114 to 116 °C | CC(C)(C)c1ccc(OCC(O)CN2CCC3(CC2)CSC2=C(O3)c3cc(F)ccc3C(=O)C2=O)cc1 (stereo not drawn)
150 °C | CN1CCN(C(=O)CCOC2c3ccccc3C(=O)N2c2ccc3ccc(Cl)nc3n2)CC1 (stereo not drawn)
206 to 208 °C | CCc1cccc(C)c1CNc1cc(Br)cc2c1nc(CO)n2C
154 to 155 °C | Cc1oc(COc2ccc(/C=C/CO)cc2)nc1-c1ccccc1
158 to 159 °C | Cc1ccc(-n2nc3c(cc2=O)CCCc2sc(CO)cc2-3)cc1
85 to 86 °C | CCOC(=O)c1ccc(CCCCN2C(=O)c3ccccc3C2=O)cc1
159 to 160 °C | Cn1nnnc1CC(=O)c1ccc(Br)cc1N
80 to 85 °C | CCCCc1nn2cccc(C(=O)OC)c2c1Cc1ccc(Br)cc1
214 to 215 °C | Clc1cccc(Nc2ncnc3[nH]nc(NCc4cccc5c4OCO5)c23)c1
260 to 264 °C | Cc1cc(Cn2cncc2C)cc2c1Cc1c(-c3ccsc3)n[nH]c1-2
126 to 128 °C | COc1ccc2c(-c3ccc(OCCN4CCOCC4)cc3)c(Cc3ccc(Cl)cc3)oc2c1
116 to 119 °C | C=CCn1nc(-c2ccc(S(C)(=O)=O)cc2)c(-c2ccc(F)cc2)c1C(F)(F)F
146 °C | COc1c(C)cc(-c2cncc(OC3SCC(OC(C)=O)C(OC(C)=O)C3OC(C)=O)c2)cc1C (stereo not drawn)
242 to 243 °C | Cc1nnc(-c2ccc3occ(C(=O)NCCC(N)=O)c3c2)o1

melting point | Structure (SMILES)
97 to 99 °C | c1ccc(Sc2ccc3[nH]ccc3c2)cc1
83 to 84 °C | CC(C)c1cc(C(=O)CO[C@@H]2C[C@H](C)CC[C@H]2C(C)C)cc(C(C)C)c1O
194 °C | O=[N+]([O-])c1ccc(C(=NO)c2ccc([N+](=O)[O-])cc2)cc1
106 to 108 °C | O=C(NC1CCCCC1)N(CCCN1CCC(Cc2ccccc2)CC1)c1ccccc1
96 to 97 °C | O=C1c2cc(N(CCO)CCO)ccc2OC12CC2
160 to 162 °C | CCC1c2ccc(F)n2-c2ccc(Br)cc2N1S(=O)(=O)c1ccc(O)cc1 (stereo not drawn)
53 to 54.5 °C | CN(C)CCNc1nccc(N2CCCCCC2)n1
120 to 125 °C | CNC(=O)NC(C)C(C)CC(=O)NS(=O)(=O)c1ccc(C)cc1 (stereo not drawn)
242 to 248 °C | CON=Cc1c[nH]c(-c2ccc(F)cc2)c1-c1ccncc1
95 to 96 °C | Cc1cc(C(=O)OC(CC(C)C)C(=O)O)cc(C)n1 (racemic)
85 to 87 °C | O=C(O)CCCOc1cc(C(F)(F)F)cc(C(F)(F)F)c1
138 to 140 °C | O=[N+]([O-])c1ccc(C2OCc3ccc(CCl)cc3CO2)cc1 (stereo not drawn)
224 °C | COc1cc(C(=O)Nc2cc(Oc3ccc4nc(NC(=O)C5CC5)cn4n3)ccc2C)n(C)n1
109 to 111 °C | Nc1c(F)c(Cc2ccc(F)cc2)nc(C=O)c1Cl
148 to 150 °C | CCCCOc1c(CNC(=O)OC(C)(C)C)n(CC(C)C)c(=O)c2ccc(-c3nc(C)c(C#N)s3)cc12
263 to 266 °C | Cn1nc(-c2ccc(C(=N)N)cc2)cc(C(=O)N[C@H]2CC[C@H](C(=O)O)CC2)c1=O
291 to 292 °C | C=C(C)C1CCC2(C(=O)O)CCC3(C)C(CCC4C5(C)CCC(O)C(C)(C)C5CCC43C)C12 (stereo not drawn)
160 to 162 °C | Cc1cc(Oc2ccc3nc(COc4ccc(CC5SC(=O)NC5=O)cc4)n(C)c3c2)cc(C)c1NC(=S)Nc1ccc(Cl)cc1 (stereo not drawn)
228 to 230 °C | C[C@@H]1Cc2cc(N3C[C@H](C(N)=O)OC3=O)ccc2N1C=O
166 to 168 °C | O=[N+]([O-])c1ccc(Sc2cc(Br)nc(Br)c2)cc1
95 to 105 °C | COc1ccc(N)cc1Oc1ncc(Cl)cc1Cl
93 to 96 °C | Cc1onc(-c2ccco2)c1-c1ccccc1
113 to 115 °C | CCCC(=O)c1cnc2c(O)cccc2c1Nc1ccccc1C
159 to 161 °C | Cc1cc(C)c(CC(=O)c2ccc(C(C)C)c(OS(N)(=O)=O)c2C(C)C)c(C)c1

melting point | Structure (SMILES)
196 to 198 °C | CNC(=O)c1cc(-c2ccc(-c3ccco3)cc2)n(-c2ccc(S(C)(=O)=O)c(F)c2)n1
218 to 219 °C | CCCC(=O)c1ccc(NC(=S)N2CCN(c3ncnc4cc(OC)c(OC)cc34)CC2)cc1
81 to 83 °C | O=C1c2ccccc2OCC1C(=O)C(F)(F)F (stereo not drawn)
199 to 201 °C | C[C@@H]1S[C@@H](C(=O)Nc2ccc(CN3CCC(=O)CC3)cc2)Cc2cc3c(cc2C1=O)OCO3
92 to 97 °C | O=C(O)CSCCCCCCn1nc(-c2ccccc2)c(-c2ccccc2)c1-c1ccccc1
123 to 124 °C | COC(=O)CCCc1cc2nc(Cl)ccc2n1S(=O)(=O)c1ccc(N(C)C)cc1Cl
148 to 149 °C | O=C(C=Cc1ccccc1O)c1ccccc1
216 to 219 °C | Cc1c(C)c(N2CCN(c3ccc(OC(F)(F)F)cc3)CC2)c(C)c2c1OC(C)(C)C2
169 to 170 °C | CS(=O)(=O)Nc1cc2c(cc1Oc1ccccc1)C(=O)C(Br)(Br)CO2
162 to 163 °C | COc1cc2c(c(OC)c1OC)C[C@@H](N1CCN(C(=O)C=Cc3ccccc3)CC1)[C@@H]2O (relative stereo)
50 to 52 °C | CCCC=Cc1c(C(C)C)nc(C(C)C)c(CO)c1-c1ccc(-c2ccccc2)cc1
102 to 108 °C | CNS(=O)(=O)c1ccccc1Nc1nc(Nc2ccc3c(c2)CCN(CCOC)CC3)ncc1Cl
38.5 to 39.5 °C | CCOC(=O)Nc1cccc(C)c1C(=O)OCC
111 to 114 °C | Fc1ccc(C2=CCC(N3CCN(Cc4ccc5ccccc5n4)CC3)CC2)cc1 (stereo not drawn)
105 to 106 °C | CS(=O)(=O)c1nnc(-c2ccnc(Nc3cccc(C(F)(F)F)c3)c2)o1
173 to 175 °C | CO[C@@H](Cc1ccc(OCCc2nc(-c3ccc(C(F)(F)F)cc3)oc2C)c2ccsc12)C(=O)O
230 to 233 °C | COc1cc(OC)nc(Oc2ccc3[nH]c(C)c(NC(C)=O)c3c2C(=O)O)n1
88 to 89 °C | Cc1oc(-c2ccccc2)nc1COc1ccc(CON=C(CCCCCCC(=O)O)c2ccccc2)cc1
157 to 159 °C | O=C(Nc1cccc(F)c1)c1ccccc1O
133 to 134 °C | O=c1oc(-c2ccccc2)cc(O)c1SCCc1cccc(Cl)c1
276 to 278 °C | CCn1c(=O)c2c(O)cc(=O)oc2c2ccc(Cl)cc21
276 to 279 °C | CN(C)c1ccc(-c2nnc(S)nc2-c2ccc(N(C)C)cc2)cc1
56 to 59 °C | COC(=O)COc1ccc(C(=O)CN(C)C(=O)OCc2ccccc2)cc1OCC(=O)OC
147 to 148 °C | CCOC(=O)/C(=N\OC1CCS(=O)(=O)C1)c1csc(N)n1 (stereo not drawn)

melting point | Structure (SMILES)
179 to 180 °C | O=C(Nc1ccccc1)Nc1ccnc(F)c1
75.1 to 76.2 °C | CCOC(=O)COc1c(C=O)cccc1OC
173 to 175 °C | CCCN(Cc1ccc(-c2ccccc2-c2nc(=O)s[nH]2)cc1)c1nc(C)ncc1C(=O)OCC
189 to 190 °C | COCCSc1[nH]nc(-c2ccc(Cl)cc2)c1-c1ccncc1
186 to 188 °C | CCc1cccc(CC)c1C(=O)Nc1cccc2c1CCN(C)C2
94 to 96 °C | c1coc(P(CCP(c2ccco2)c2ccco2)c2ccco2)c1
154 to 155 °C | CCCCN(C(=O)c1cnc(N2CC(C)(C)NC2=O)nc1N)c1cccc(C(F)(F)F)c1
64 to 65 °C | O=C(O)C(=O)c1ccc(OCCOC2CCCCCCC2)cc1
220 to 223 °C | CN1c2ccccc2N(C(=O)c2ccc(-c3ccccc3)cc2)Cc2cccnc21
91 to 93 °C | O=C(O)CNC(=O)Cc1ccccc1S
172 °C | CC(C)(C)C(=O)Nc1c(F)cc(F)cc1Oc1ccc(C2CC(=O)NC(=O)C2)cc1
172 to 174 °C | CCOC(=O)c1c(Cc2nc[nH]n2)nc2sc3cnccc3c2c1-c1ccc(OC)c(OC)c1
105 to 108 °C | ClCCCN1c2ccccc2OCOc2ccc(Cl)cc21
227 to 230 °C | Cc1cc(Cc2ccc(NC(=O)N(C)C)cn2)n(C)c1C(=O)c1ccc(Cl)cc1
230 to 232 °C | Cc1c(Cc2cccnc2)sc2ccc(C(=O)O)cc12
91 to 96 °C | CC(C)(C)OC(=O)n1cc(C(=O)C2CSC(c3cccnc3)N2)c2cccc(OCc3ccccc3)c21 (stereo not drawn)
86 to 87 °C | CC(C)N(C)c1ncc(C2CC2(C)C(N)=O)cc1Cl (stereo not drawn)
159 °C | Cc1ccc(NC(=O)c2cc(Cl)cc(C)n2)nc1
245 to 248 °C | CCCS(=O)(=O)Nc1cccc(C)c1C(N)c1cccn2c(C)c(C)nc12 (stereo not drawn)
167 to 169 °C | Cc1cc(C(O)(C(F)(F)F)C(F)(F)F)cc(C)c1OCCN
127 to 130 °C | Cc1ccc2c(c1)c(-c1ccc(F)cc1)c(Cl)n2C1CCN(CCN2CCN(C(C)C)C2=O)CC1

Structure (SMILES) | melting point
CON=C(C[N+](=O)[O-])NCc1cccnc1 | 77 to 78 °C
Cn1nnnc1Cn1nnnc1Cl | 138 to 140 °C
CCCCn1cc(C(=O)O)c2ccc(Cl)cc21 | 149 to 151 °C
CC(C)(C)c1c(O)[nH]c(=O)[nH]c1=O | 247 to 248 °C
CSC(=N[N+](=O)[O-])N(C)C(C)=O | 40 to 41 °C
